Tests used:
Test in all cases: relative viability (nuclei count vs DMSO), 5 days (fraction); higher = more cells survive
[1] = compound: CC1=C(CC(=O)O)c2cc(F)ccc2/C1=C\c1ccc([S+](C)[O-])cc1 [Sulindac] + CCNC(=O)c1noc(-c2cc(C(C)C)c(O)cc2O)c1-c1ccc(CN2CCOCC2)cc1 [Luminespib] (partner 0.01 µM)
In short: (§1)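 One day after seeding in 1536-well plates, lung cancer cell lines were dosed by pin tool. Dosing was either single-drug or a fixed anchor-drug dose plus five library-drug doses (not always all listed) in √10 steps. After 5 days, nuclei were stained in one fix-and-stain step and counted on 4× images, and relative viability is the nuclei count of treated wells over that of vehicle wells, given as the median of duplicate plates.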

[2] = compound: CC1=C(CC(=O)O)c2cc(F)ccc2/C1=C\c1ccc([S+](C)[O-])cc1 [Sulindac] + C[C@@H](Oc1cc(-c2cnn(C3CCNCC3)c2)cnc1N)c1c(Cl)ccc(F)c1Cl [Crizotinib] (partner 1 µM)
In short: as §1

[3] = compound: CN[C@@H]1C[C@H]2O[C@@](C)([C@@H]1OC)n1c3ccccc3c3c4c(c5c6ccccc6n2c5c31)C(=O)NC4 [Staurosporine] + CS(=O)(=O)CCNCc1ccc(-c2ccc3ncnc(Nc4ccc(OCc5cccc(F)c5)c(Cl)c4)c3c2)o1 [Lapatinib] (partner 2 µM)
In short: as §1

[4] = compound: CC1=C(CC(=O)O)c2cc(F)ccc2/C1=C\c1ccc([S+](C)[O-])cc1 [Sulindac] + NC(=O)Nc1cc(-c2cccc(F)c2)sc1C(=O)N[C@H]1CCCNC1 [AZD7762] (partner 0.2 µM)
In short: as §1

Cell Line	relative viability ([1]; first compound 0.08 µM)	relative viability ([1]; first compound 0.253 µM)	relative viability ([1]; first compound 2.53 µM)	relative viability ([1]; first compound 8 µM)	relative viability ([2]; first compound 0.08 µM)	relative viability ([2]; first compound 0.253 µM)	relative viability ([2]; first compound 0.8 µM)	relative viability ([2]; first compound 2.53 µM)	relative viability ([2]; first compound 8 µM)	relative viability ([3]; first compound 0.005 µM)	relative viability ([3]; first compound 0.01581 µM)	relative viability ([3]; first compound 0.05 µM)	relative viability ([3]; first compound 0.1581 µM)	relative viability ([3]; first compound 0.5 µM)	relative viability ([4]; first compound 0.08 µM)	relative viability ([4]; first compound 0.253 µM)	relative viability ([4]; first compound 0.8 µM)	relative viability ([4]; first compound 2.53 µM)	relative viability ([4]; first compound 8 µM)	relative viability ([1]; first compound 0.8 µM)
NCI-H1355	0.612	0.668	0.601	0.702	1.27	1.15	0.954	1.07	1.11	0.96	0.557	0.272	0.188	0.193	0.842	0.748	0.71	0.765	0.858	–
EKVX	0.755	0.792	0.887	0.897	1.17	0.871	0.692	0.907	0.947	0.152	0.135	0.162	0.156	0.1	0.755	0.902	0.571	0.763	0.809	0.768
NCI-H520	0.21	0.204	0.228	0.199	0.801	0.747	0.445	0.828	0.876	0.935	0.595	0.514	0.178	0.13	–	–	–	–	–	0.246
NCI-H1993	0.718	0.774	0.961	0.988	0.848	0.862	0.747	0.86	0.83	0.775	0.536	0.639	0.485	0.409	0.717	0.854	0.606	0.695	0.854	0.645
HCC-78	–	–	–	–	0.305	0.326	0.327	0.296	0.401	0.238	0.22	0.38	0.263	0.232	0.614	0.6	0.557	0.599	0.722	–
NCI-H2087	0.196	0.164	0.148	0.167	1.08	0.882	0.739	1.03	0.85	0.755	0.548	0.427	0.206	0.105	1.73	1.52	0.983	1.48	1.4	–
H3255	0.85	0.958	0.954	1.05	0.829	1.04	0.891	0.917	1.05	0.138	0.0852	0.124	0.142	0.137	0.884	0.931	0.627	0.867	1.11	0.847
NCI-H2126	0.963	0.804	0.991	0.955	1.13	1.01	1.03	1.04	1.11	0.805	0.571	0.505	0.336	0.356	1.12	1.03	0.889	1.01	1.09	0.888
LC-2-ad	1.03	0.947	0.994	1.18	0.423	0.516	0.404	0.46	0.466	0.957	0.127	0.47	0.0776	0.0569	0.972	0.906	0.701	0.815	0.944	1.07
SK-LU-1	0.193	0.204	0.202	0.215	0.844	1.22	0.781	0.975	1.26	0.611	0.266	0.153	0.162	0.16	–	–	–	–	–	0.175
EBC-1	–	–	–	–	0.188	0.196	–	0.178	0.201	0.187	0.177	0.189	0.122	0.127	–	–	–	–	–	–
HCC-15	0.588	0.351	0.431	0.389	0.952	0.934	0.647	0.834	0.883	0.892	–	0.595	0.365	0.151	1.11	1.44	0.883	1.23	1.16	0.304
NCI-H1563	0.449	0.553	0.551	0.498	0.84	0.92	0.806	0.785	0.888	0.71	0.541	0.594	0.539	0.472	–	–	–	–	–	0.535
COR-L 105	0.677	0.66	0.793	0.792	0.957	0.901	0.759	0.776	0.911	0.354	0.247	0.247	0.243	0.218	–	–	–	–	–	0.724
NCI-H647	0.187	0.125	0.122	0.134	1.4	1.21	0.879	1.26	1.35	0.603	0.262	0.253	0.0661	0.0597	0.592	0.5	0.362	0.575	0.488	0.169
LU99A	0.164	0.315	0.243	0.263	0.636	0.515	0.543	0.474	0.57	0.669	0.313	0.282	0.171	0.133	0.324	0.467	0.433	0.327	0.404	0.196
NCI-H1703	–	–	–	–	0.561	0.649	0.824	0.678	0.805	0.45	0.313	0.245	0.172	0.151	0.129	0.14	–	0.111	0.17	–
NCI-H2170	0.782	0.755	0.671	0.627	1.21	1.21	0.771	1.2	1.23	0.289	0.236	0.258	0.197	0.193	1.06	0.91	0.765	1.01	0.884	0.941
NCI-H2342	0.636	0.767	0.761	0.821	–	–	–	–	–	–	–	–	–	–	0.76	0.495	0.441	0.491	0.5	0.7
LCLC-97TM1	0.978	0.847	0.644	0.876	0.435	0.373	0.319	–	0.418	0.864	0.168	0.285	0.174	0.381	0.274	0.377	0.171	–	0.232	0.673
NCI-H1299	–	–	–	–	1.06	0.975	0.866	0.971	1.01	0.985	0.414	0.326	0.201	0.171	–	–	–	–	–	–
NCI-H322M	0.887	0.819	0.848	0.881	1.02	1.05	0.687	1.03	1.05	0.746	0.438	0.484	0.402	0.278	0.469	0.42	0.573	0.575	0.546	0.644

Cell Line	relative viability ([1]; first compound 0.08 µM)	relative viability ([1]; first compound 0.253 µM)	relative viability ([1]; first compound 2.53 µM)	relative viability ([1]; first compound 8 µM)	relative viability ([2]; first compound 0.08 µM)	relative viability ([2]; first compound 0.253 µM)	relative viability ([2]; first compound 0.8 µM)	relative viability ([2]; first compound 2.53 µM)	relative viability ([2]; first compound 8 µM)	relative viability ([3]; first compound 0.005 µM)	relative viability ([3]; first compound 0.01581 µM)	relative viability ([3]; first compound 0.05 µM)	relative viability ([3]; first compound 0.1581 µM)	relative viability ([3]; first compound 0.5 µM)	relative viability ([4]; first compound 0.08 µM)	relative viability ([4]; first compound 0.253 µM)	relative viability ([4]; first compound 0.8 µM)	relative viability ([4]; first compound 2.53 µM)	relative viability ([4]; first compound 8 µM)	relative viability ([1]; first compound 0.8 µM)
NCI-H1395	0.713	0.68	0.709	0.643	–	–	–	–	–	0.833	0.551	0.487	0.356	0.376	0.387	0.378	0.4	0.401	0.401	0.611
NCI-H2023	0.923	0.845	0.649	0.92	0.686	0.429	0.53	0.718	0.685	0.509	0.11	0.18	0.0948	0.0518	–	–	–	–	–	–
Calu-6	–	–	–	–	0.951	0.883	0.637	0.853	0.969	0.87	0.51	0.277	0.136	0.085	–	–	–	–	–	–
NCI-H1650	0.201	0.197	0.192	0.211	1.17	0.878	0.912	0.979	1.02	0.575	0.165	0.336	0.151	0.117	–	–	–	–	–	–
NCI-H1648	–	–	–	–	–	–	–	–	–	–	–	–	–	–	0.682	0.746	–	0.7	0.768	–
COR-L23	0.903	0.555	0.739	0.952	0.711	0.783	–	0.613	0.82	0.695	0.31	0.241	0.0931	0.0662	–	–	–	–	–	0.508
ChaGo-K-1	0.526	0.584	0.587	0.405	1.34	1.17	0.769	1.28	1.31	–	–	–	–	–	0.949	0.878	0.803	0.932	0.906	0.637
SW 1573	0.197	0.25	0.293	0.284	0.825	0.742	0.766	0.869	0.867	1.01	1.07	0.417	0.355	0.186	–	–	–	–	–	0.242
NCI-H661	0.969	0.97	0.9	0.957	0.973	1.03	1.03	1.17	0.973	0.472	0.395	0.266	0.235	0.236	–	–	–	–	–	0.852
NCI-H2009	1.15	1.01	0.986	1.15	1.15	1.05	1.05	0.985	1.24	0.249	0.152	0.251	0.125	0.0882	–	–	–	–	–	1.05
NCI-H1623	0.424	0.459	0.462	0.507	–	–	–	–	–	–	–	–	–	–	–	–	–	–	–	0.51
HCC-366	–	–	–	–	0.378	0.599	0.446	0.497	0.729	1.22	–	0.278	0.0407	0.0187	0.284	0.257	–	0.359	0.265	–
NCI-H522	1.15	1.01	1.2	1.22	–	–	–	–	–	–	–	–	–	–	0.753	0.921	0.962	0.693	0.657	1.09
NCI-H441	0.345	0.326	0.239	0.289	0.709	0.719	0.626	0.651	0.946	–	–	–	–	–	1.24	1.03	0.798	1.18	1.38	0.352
SW 900	–	0.176	0.156	0.173	–	–	–	–	–	–	–	–	–	–	0.538	0.677	–	–	0.643	–
SK-MES-1	0.875	0.985	0.735	0.935	1.14	1.09	0.822	1.09	1.14	0.444	0.31	0.311	0.205	0.185	–	–	–	–	–	0.78
NCI-H1793	0.188	0.168	0.169	0.265	–	–	–	–	–	0.829	0.281	0.527	0.216	0.18	0.41	0.537	–	0.441	0.33	0.163
IA-LM	–	–	–	–	0.565	0.804	0.594	0.677	1.12	0.194	0.194	0.158	0.208	0.074	–	–	–	–	–	–
A549	–	–	–	–	1.13	0.783	0.651	0.892	0.924	0.823	0.715	0.499	0.0558	0.0481	–	–	–	–	–	–
LCLC-103H	1.21	1.09	0.886	0.996	1.09	1.11	0.952	1.11	1.09	–	–	–	–	–	0.88	0.799	0.708	0.786	0.91	0.751
NCI-H2228	0.115	0.129	0.185	0.163	0.504	0.47	0.519	0.475	0.479	0.88	0.49	0.346	0.137	0.115	–	–	–	–	–	0.131
